From patent US7989469B2, “Certain chemical entities, compositions, and methods” (Cytokinetics, Incorporated, priority 2008, dated 2011)

system: rabbit skeletal muscle myofibril preparations (approximately 90% fast fibers); experiment: Activation of fast skeletal muscle fibers: enzymatic activity of myofibril preparations (PUMA assay system); assay type: biochemical; parameters: unit not given here; details: detergent treated myofibrils at pCa25%, 500 μM ATP; cells marked †: Mean value
Description: Fast fiber activators were identified by measuring the enzymatic activity of muscle myofibril preparations using the proprietary PUMA™ (see, e.g., U.S. Pat. Nos. 6,410,254, 6,743,599, 7,202,051, and 7,378,254) assay system. Myofibril preparations consisted of rabbit skeletal muscle (approximately 90% fast fibers) that had been treated with a detergen (triton X-100) to remove cellular membranes and then homogenized. This preparation retained all of the sarcomeric components in a native conformation and the enzymatic activity was still regulated by calcium. Compounds were tested using a myofibril suspension and a level of calcium sufficient to increase enzymatic activity of the myofibrils to 25% of their maximal rate (termed pCa25%). Enzymatic activity was tracked via a kinetic assay with a UV absorption readout. Hits were identified as compounds that increased the rate of enzymatic activity by greater than 40% at 40 μM. Myofibril preparations are calcium regulated and were screened at a level of calcium sufficient to produce a 25% increase in enzymatic rate. Detergent treated myofibrils were incubated with 500 μM ATP and 40 μM compound and a kinetic read of UV absorbance performed. Data was normalized to control wells.

CCC(CC)n1c(O)nc2ncc(Cl)c(-c3ccsc3)c21 [6-chloro-1-(ethylpropyl)-7-(3-thienyl)imidazo[4,5-b]pyridin-2-ol] was tested, and the “AC1.4 Median” value was 0.124†.
With CC(C)n1c(O)nc2ncc(Cl)c(-c3ccc(F)cc3)c21 [6-chloro-7-(4-fluorophenyl)-1-(methylethyl)imidazo[4,5-b]pyridin-2-ol] the “AC1.4 Median” value was 0.096†.
In the case of “6-chloro-7-(5-chloro(2-thienyl))-1-(ethylpropyl)imidazo[4,5-b]pyridin-2-ol”, the “AC1.4 Median” value was 0.084†.
CC(C)(C)n1c(O)nc2ncc(Cl)c(-c3ccc(F)cc3)c21 [1-(tert-butyl)-6-chloro-7-(4-fluorophenyl)imidazo[4,5-b]pyridin-2-ol] was tested, and the “AC1.4 Median” value was 0.199†.
CC[C@@H](CO)n1c(O)nc2ncc(Cl)c(-c3ccc(F)cc3)c21 [1-(1S)-1-ethyl-2-hydroxyethyl)-6-chloro-7-(4-fluorophenyl)imidazo[4,5-b]pyridin-2-ol] was tested, and the “AC1.4 Median” value was 0.363†.
With “6-chloro-1-(ethylpropyl)-7-(4-fluorophenyl)imidazo[4,5-b]pyridin-2-ol” the “AC1.4 Median” value was 0.074†.
With “7-(3,4-difluorophenyl)-6-chloro-1-(ethylpropyl)imidazo[4,5-b]pyridin-2-ol” the “AC1.4 Median” value was 0.106†.
In the case of “6-chloro-7-(3-chlorophenyl)-1-(ethylpropyl)imidazo[4,5-b]pyridin-2-ol”, the “AC1.4 Median” value was 0.330†.

same assay, conditions: detergent treated myofibrils at pCa25%, 500 μM ATP; median value (no †)

Compared with CC[C@@H](n1c(O)nc2ncc(Cl)c(-c3ccc(F)cc3)c21)C(C)(C)O [1-((1R)-1-ethyl-2-hydroxy-2-methylpropyl)-6-chloro-7-(4-fluorophenyl)imidazo[4,5-b]pyridin-2-ol], “6-chloro-7-(2-chloro-4-methoxyphenyl)-1-(ethylpropyl)imidazo[4,5-b]pyridin-2-ol” is higher in “AC1.4 Median” value: 0.537 for the first, 1.898 for the second.

First: 6-chloro-1-(ethylpropyl)-7-(1-methylpyrazol-4-yl)imidazo[4,5-b]pyridin-2-ol
Second: CC[C@H](C)n1c(O)nc2ncc(Cl)c(-n3cccn3)c21 [1-((1S)-1-methylpropyl)-6-chloro-7-pyrazolylimidazo[4,5-b]pyridin-2-ol]
The “AC1.4 Median” value of the first is higher: 17.805 for the first, 1.0174 for the second.

First: 6-chloro-1-(ethylpropyl)-7-(5-methylpyrimidin-2-yl)imidazo[4,5-b]pyridin-2-ol
Second: {3-[6-chloro-1-(ethylpropyl)-2-hydroxyimidazo[4,5-b]pyridin-7-yl]phenyl}-N,N-dimethylcarboxamide
The “AC1.4 Median” value of the first is lower: 18.694 for the first, 21.245 for the second.

Compared with CC[C@H](CN)n1c(O)nc2ncc(Cl)c(-c3ccc(F)cc3)c21 [1-((1R)-2-amino-1-ethylethyl)-6-chloro-7-(4-fluorophenyl)imidazo[4,5-b]pyridin-2-ol], CC[C@@H](CO)n1c(O)nc2ncc(F)c(-c3ccc(F)cc3)c21 [1-((1S)-1-ethyl-2-hydroxyethyl)-6-fluoro-7-(4-fluorophenyl)imidazo[4,5-b]pyridin-2-ol] is lower in “AC1.4 Median” value: 46.969 for the first, 4.204 for the second.

First: CC[C@H](CO)n1c(O)nc2ncc(Cl)c(-c3ccc(F)cc3)c21 [1-((1R)-1-ethyl-2-hydroxyethyl)-6-chloro-7-(4-fluorophenyl)imidazo[4,5-b]pyridin-2-ol]
Second: CC[C@H](CO)n1c(O)nc2ncc(Cl)c(-c3ccc(F)c(F)c3)c21 [1-((1R)-1-ethyl-2-hydroxyethyl)-7-(3,4-difluorophenyl)-6-chloroimidazo[4,5-b]pyridin-2-ol]
The “AC1.4 Median” value of the first is lower: 2.367 for the first, 4.034 for the second.

Going from OCCn1c(O)nc2ncc(Cl)c(-c3ccccc3)c21 [6-chloro-1-(2-hydroxyethyl)-7-phenylimidazo[4,5-b]pyridin-2-ol] to C=CCn1c(O)nc2ncc(Cl)c(-c3ccc(F)cc3)c21 [6-chloro-7-(4-fluorophenyl)-1-prop-2-enylimidazo[4,5-b]pyridin-2-ol], the “AC1.4 Median” value falls from 34.551 to 1.947.

First: CCC(CC)n1c(O)nc2ncc(Cl)c(-c3ccnc(C#N)c3)c21 [4-(6-chloro-2-hydroxy-1-(pentan-3-yl)-1H-imidazo[4,5-b]pyridin-7-yl)picolinonitrile]
Second: 6-chloro-1-(ethylpropyl)-7-[3-(trifluoromethoxy)phenyl]imidazo[4,5-b]pyridin-2-ol
The “AC1.4 Median” value of the first is higher: 9.842 for the first, 2.369 for the second.

Going from CCC(C)n1c(O)nc2ncc(Cl)c(-n3cccn3)c21 (stereo not drawn) [6-chloro-1-(methylpropyl)-7-pyrazolylimidazo[4,5-b]pyridin-2-ol] to CC[C@@H](CC(C)(C)O)n1c(O)nc2ncc(Cl)c(-c3ccc(F)cc3)c21 [1-((1S)-1-ethyl-3-hydroxy-3-methylbutyl)-6-chloro-7-(4-fluorophenyl)imidazo[4,5-b]pyridin-2-ol], the “AC1.4 Median” value falls from 1.3927 to 1.0092.

Going from “6-chloro-1-(ethylpropyl)-7-[4-(trifluoromethoxy)phenyl]imidazo[4,5-b]pyridin-2-ol” to Oc1nc2ncc(Cl)c(-c3ccc(F)cc3)c2n1C1CCCC1 [6-chloro-1-cyclopentyl-7-(4-fluorophenyl)imidazo[4,5-b]pyridin-2-ol], the “AC1.4 Median” value rises from 0.781 to 1.677.

Going from CC[C@@H](CO)n1c(O)nc2ncc(Cl)c(-n3cccn3)c21 [1-((1S)-1-ethyl-2-hydroxyethyl)-6-chloro-7-pyrazolylimidazo[4,5-b]pyridin-2-ol] to CC[C@@H](CO)n1c(O)nc2ncc(Cl)c(-c3ccc(C)cc3)c21 [1-((1S)-1-ethyl-2-hydroxyethyl)-6-chloro-7-(4-methylphenyl)imidazo[4,5-b]pyridin-2-ol], the “AC1.4 Median” value falls from 7.2481 to 2.194.

First: 6-chloro-1-(ethylpropyl)-7-(1-methyl(1H-indazol-6-yl))imidazo[4,5-b]pyridin-2-ol
Second: 1-(ethylpropyl)-7-phenylimidazo[4,5-b]pyridin-2-ol
The “AC1.4 Median” value of the first is higher: 20.233 for the first, 2.083 for the second.

Going from CC[C@H](CO)n1c(O)nc2ncc(Cl)c(-c3ccc(F)cn3)c21 [1-((1R)-1-ethyl-2-hydroxyethyl)-6-chloro-7-(5-fluoro(2-pyridyl))imidazo[4,5-b]pyridin-2-ol] to CC[C@@H](COC)n1c(O)nc2ncc(Cl)c(-c3ccc(F)cn3)c21 [1-[(1S)-1-(methoxymethyl)propyl]-6-chloro-7-(5-fluoro(2-pyridyl))imidazo[4,5-b]pyridin-2-ol], the “AC1.4 Median” value falls from 7.658 to 3.771.

First: 6-chloro-1-(ethylpropyl)-7-(2-methylphenyl)imidazo[4,5-b]pyridin-2-ol
Second: CC[C@@H](COC)n1c(O)nc2ncc(Cl)c(-c3ccc(F)cc3)c21 [1-[(1S)-1-(methoxymethyl)propyl]-6-chloro-7-(4-fluorophenyl)imidazo[4,5-b]pyridin-2-ol]
The “AC1.4 Median” value of the first is higher: 1.688 for the first, 0.317 for the second.

Going from “6-chloro-1-(ethylpropyl)-7-pyrazol-4-ylimidazo[4,5-b]pyridin-2-ol” to OCCCn1c(O)nc2ncc(Cl)c(-c3ccc(F)cc3)c21 [6-chloro-7-(4-fluorophenyl)-1-(3-hydroxypropyl)imidazo[4,5-b]pyridin-2-ol], the “AC1.4 Median” value falls from 38.791 to 7.015.

First: 6-chloro-1-(ethylpropyl)-7-imidazolylimidazo[4,5-b]pyridin-2-ol
Second: 6-chloro-1-(ethylpropyl)-7-[2-(trifluoromethyl)(4-pyridyl)]imidazo[4,5-b]pyridin-2-ol
The “AC1.4 Median” value of the first is higher: 22.2909 for the first, 3.590 for the second.

First: 6-chloro-1-(ethylpropyl)-7-[3-(methoxymethyl)phenyl]imidazo[4,5-b]pyridin-2-ol
Second: CC[C@@H](CO)n1c(O)nc2ncc(Cl)c(-c3ccc(C#N)cc3)c21 [4-[1-((1S)-1-ethyl-2-hydroxyethyl)-6-chloro-2-hydroxyimidazo[4,5-b]pyridin-7-yl]benzenecarbonitrile]
The “AC1.4 Median” value of the first is higher: 8.109 for the first, 3.249 for the second.

Going from “6-chloro-1-(ethylpropyl)-7-(3-hydroxyphenyl)imidazo[4,5-b]pyridin-2-ol” to “6-chloro-1-(ethylpropyl)-7-(5-methyl(1,2,4-oxadiazol-3-yl))imidazo[4,5-b]pyridin-2-ol”, the “AC1.4 Median” value rises from 3.021 to 4.017.

First: 6-chloro-1-(ethylpropyl)-7-(6-methyl(2-pyridyl))imidazo[4,5-b]pyridin-2-ol
Second: CC[C@H](CNC(C)=O)c1nc2nc(O)[nH]c2c(-c2ccc(F)cc2)c1Cl [N-{(2R)-2-[6-chloro-7-(4-fluorophenyl)-2-hydroxyimidazo[4,5-b]pyridinyl]butyl}acetamide]
The “AC1.4 Median” value of the first is lower: 4.048 for the first, 15.6039 for the second.

Going from “6-chloro-1-(ethylpropyl)-7-(4-pyridyl)imidazo[4,5-b]pyridin-2-ol” to “N-{4-[6-chloro-1-(ethylpropyl)-2-hydroxyimidazo[4,5-b]pyridin-7-yl]phenyl}acetamide”, the “AC1.4 Median” value rises from 3.015 to 28.930.

Compared with “6-[6-chloro-1-(ethylpropyl)-2-hydroxyimidazo[4,5-b]pyridin-7-yl]pyridine-3-carbonitrile”, “6-chloro-7-(3-chloro(4-pyridyl))-1-(ethylpropyl)imidazo[4,5-b]pyridin-2-ol” is higher in “AC1.4 Median” value: 2.892 for the first, 4.471 for the second.

First: 6-chloro-1-(methylethyl)-7-pyrazolylimidazo[4,5-b]pyridin-2-ol
Second: 6-chloro-1-(ethylpropyl)-7-(6-methoxy(3-pyridyl))imidazo[4,5-b]pyridin-2-ol
The “AC1.4 Median” value of the first is lower: 2.0829 for the first, 2.232 for the second.

For C[C@H](CO)n1c(O)nc2ncc(Cl)c(-c3ccc(F)cc3)c21 [1-((1R)-2-hydroxy-isopropyl)-6-chloro-7-(4-fluorophenyl)imidazo[4,5-b]pyridin-2-ol], the “AC1.4 Median” value was 11.044.
